Data on one molecule can be found in ChEMBL document CHEMBL4330132, “5-Keto-3-cyano-2,4-diaminothiophenes as selective maternal embryonic leucine zipper kinase inhibitors” (Bioorg Med Chem Lett, 2019).

The structures appear in SMILES notation.

Experiment [1] deals with Phosphorylase b kinase gamma catalytic chain, skeletal muscle/heart isoform (Homo sapiens) (UniProt Q16816). Description: Binding affinity to wild-type human full length PHKG1 (M1 to Y387 residues) expressed in bacterial expression system assessed as residual binding level at 1 uM by Kinomescan method relative to control.
The target of experiment [2] is Epithelial discoidin domain-containing receptor 1 (Homo sapiens) (UniProt Q08345). Description: Binding affinity to wild-type human partial length DDR1 (R565 to V876 residues) expressed in bacterial expression system assessed as residual binding level at 1 uM by Kinomescan method relative to control.
Experiment [3] deals with Ephrin type-A receptor 4 (Homo sapiens) (UniProt P54764). Description: Binding affinity to wild-type human partial length EPHA4 (T601 to R897 residues) expressed in bacterial expression system assessed as residual binding level at 1 uM by Kinomescan method relative to control.
Experiment [4] relates to Phosphatidylinositol 4,5-bisphosphate 3-kinase catalytic subunit alpha isoform (Homo sapiens), P42336 [E545K]. Description: Binding affinity to human partial length PIK3CA E545K mutant (R108 to N1068 residues) expressed in mammalian expression system assessed as residual binding level at 1 uM by Kinomescan method relative to control.
For experiment [5], the target named is Serine/threonine-protein kinase 17A (Homo sapiens) (UniProt Q9UEE5). The experiment is described as follows: Binding affinity to wild-type human partial length DRAK1 (R32 to E363 residues) expressed in bacterial expression system assessed as residual binding level at 1 uM by Kinomescan method relative to control.
Experiment [6] addresses Serine/threonine-protein kinase PLK4 (Homo sapiens) (UniProt O00444). Description: Binding affinity to wild-type human partial length PLK4 (M1 to S273 residues) expressed in mammalian expression system assessed as residual binding level at 1 uM by Kinomescan method relative to control.
The target of experiment [7] is Serine/threonine-protein kinase PAK 4 (Homo sapiens) (UniProt O96013). The experiment is described as follows: Binding affinity to wild-type human partial length PAK4 (Q144 to R438 residues) expressed in bacterial expression system assessed as residual binding level at 1 uM by Kinomescan method relative to control.
Experiment [8] deals with Protein kinase C theta type (Homo sapiens) (UniProt Q04759). The experiment is described as follows: Binding affinity to wild-type human partial length PRKCQ (L350 to S706 residues) expressed in bacterial expression system assessed as residual binding level at 1 uM by Kinomescan method relative to control.
For experiment [9], the target named is Phosphatidylinositol 4-phosphate 5-kinase type-1 gamma (Homo sapiens) (UniProt O60331). The experiment is described as follows: Binding affinity to wild-type human partial length PIP5K1C (M1 to T668 residues) expressed in mammalian expression system assessed as residual binding level at 1 uM by Kinomescan method relative to control.
In experiment [10] the target is Mitogen-activated protein kinase kinase kinase 6 (Homo sapiens) (UniProt O95382). The experiment is described as follows: Binding affinity to wild-type human partial length ASK2 (M278 to R972 residues) expressed in mammalian expression system assessed as residual binding level at 1 uM by Kinomescan method relative to control.
Experiment [11] addresses BMP-2-inducible protein kinase (Homo sapiens) (UniProt Q9NSY1). The experiment is described as follows: Binding affinity to wild-type human partial length BIKE (S34 to N329 residues) expressed in bacterial expression system assessed as residual binding level at 1 uM by Kinomescan method relative to control.
In experiment [12] the target is Dual specificity mitogen-activated protein kinase kinase 7 (Homo sapiens) (UniProt O14733). The experiment is described as follows: Binding affinity to wild-type human full length MKK7 (M1 to R419 residues) expressed in mammalian expression system assessed as residual binding level at 1 uM by Kinomescan method relative to control.
Experiment [13] addresses Calcium/calmodulin-dependent protein kinase type II subunit gamma (Homo sapiens) (UniProt Q13555). Description: Binding affinity to wild-type human partial length CAMK2G (R9 to A303 residues) expressed in bacterial expression system assessed as residual binding level at 1 uM by Kinomescan method relative to control.
Experiment [14] has as its target Activated CDC42 kinase 1 (Homo sapiens) (UniProt Q07912). The experiment is described as follows: Binding affinity to wild-type human partial length TNK2 (S159 to D474 residues) expressed in bacterial expression system assessed as residual binding level at 1 uM by Kinomescan method relative to control.
For experiment [15], the target named is Tyrosine-protein kinase Yes (Homo sapiens) (UniProt P07947). The experiment is described as follows: Binding affinity to wild-type human partial length YES (T257 to L543 residues) expressed in bacterial expression system assessed as residual binding level at 1 uM by Kinomescan method relative to control.
For experiment [16], the target named is Calcium/calmodulin-dependent protein kinase type IV (Homo sapiens) (UniProt Q16566). Description: Binding affinity to wild-type human partial length CAMK4 (A22 to A322 residues) expressed in bacterial expression system assessed as residual binding level at 1 uM by Kinomescan method relative to control.
For experiment [17], the target named is Phosphatidylinositol 4,5-bisphosphate 3-kinase catalytic subunit delta isoform (Homo sapiens) (UniProt O00329). Description: Binding affinity to wild-type human partial length PIK3CD (R108 to Q1044 residues) expressed in mammalian expression system assessed as residual binding level at 1 uM by Kinomescan method relative to control.
In experiment [18] the target is Tyrosine-protein kinase Lyn (Homo sapiens) (UniProt P07948). Description: Binding affinity to wild-type human partial length LYN (C219 to Q511 residues) expressed in bacterial expression system assessed as residual binding level at 1 uM by Kinomescan method relative to control.
The target of experiment [19] is Tyrosine-protein kinase JAK3 (Homo sapiens) (UniProt P52333). Description: Binding affinity to wild-type human partial length JAK3 JH1 catalytic domain (I781 to S1124 residues) expressed in mammalian expression system assessed as residual binding level at 1 uM by Kinomescan method relative to control.
For experiment [20], the target named is MAP kinase-interacting serine/threonine-protein kinase 1 (Homo sapiens) (UniProt Q9BUB5). The experiment is described as follows: Binding affinity to wild-type human full length MKNK1 (M1 to L424 residues) expressed in mammalian expression system assessed as residual binding level at 1 uM by Kinomescan method relative to control.
In experiment [21] the target is Serine/threonine-protein kinase LATS1 (Homo sapiens) (UniProt O95835). The experiment is described as follows: Binding affinity to wild-type human partial length LATS1 (Q678 to V1130 residues) expressed in bacterial expression system assessed as residual binding level at 1 uM by Kinomescan method relative to control.
Experiment [22] has as its system eIF-2-alpha kinase GCN2 (Homo sapiens), Q9P2K8 [S808G]. Description: Binding affinity to wild-type human partial length GCN2 kinase domain 2 (R585 to T1018 residues) S808G mutant expressed in bacterial expression system assessed as residual binding level at 1 uM by Kinomescan method relative to control.
Experiment [23] deals with Receptor tyrosine-protein kinase erbB-2 (Homo sapiens) (UniProt P04626). Description: Binding affinity to wild-type human partial length ERBB2 (K646 to V1225 residues) expressed in mammalian expression system assessed as residual binding level at 1 uM by Kinomescan method relative to control.
Experiment [24] concerns the target cAMP-dependent protein kinase catalytic subunit beta (Homo sapiens) (UniProt P22694). The experiment is described as follows: Binding affinity to wild-type human full length PKAC-beta (M1 to F351 residues) expressed in bacterial expression system assessed as residual binding level at 1 uM by Kinomescan method relative to control.

Sequence of eIF-2-alpha kinase GCN2 (Homo sapiens), Q9P2K8 [S808G] (Q9P2K8 whole entry S808G, the tested form may be a part): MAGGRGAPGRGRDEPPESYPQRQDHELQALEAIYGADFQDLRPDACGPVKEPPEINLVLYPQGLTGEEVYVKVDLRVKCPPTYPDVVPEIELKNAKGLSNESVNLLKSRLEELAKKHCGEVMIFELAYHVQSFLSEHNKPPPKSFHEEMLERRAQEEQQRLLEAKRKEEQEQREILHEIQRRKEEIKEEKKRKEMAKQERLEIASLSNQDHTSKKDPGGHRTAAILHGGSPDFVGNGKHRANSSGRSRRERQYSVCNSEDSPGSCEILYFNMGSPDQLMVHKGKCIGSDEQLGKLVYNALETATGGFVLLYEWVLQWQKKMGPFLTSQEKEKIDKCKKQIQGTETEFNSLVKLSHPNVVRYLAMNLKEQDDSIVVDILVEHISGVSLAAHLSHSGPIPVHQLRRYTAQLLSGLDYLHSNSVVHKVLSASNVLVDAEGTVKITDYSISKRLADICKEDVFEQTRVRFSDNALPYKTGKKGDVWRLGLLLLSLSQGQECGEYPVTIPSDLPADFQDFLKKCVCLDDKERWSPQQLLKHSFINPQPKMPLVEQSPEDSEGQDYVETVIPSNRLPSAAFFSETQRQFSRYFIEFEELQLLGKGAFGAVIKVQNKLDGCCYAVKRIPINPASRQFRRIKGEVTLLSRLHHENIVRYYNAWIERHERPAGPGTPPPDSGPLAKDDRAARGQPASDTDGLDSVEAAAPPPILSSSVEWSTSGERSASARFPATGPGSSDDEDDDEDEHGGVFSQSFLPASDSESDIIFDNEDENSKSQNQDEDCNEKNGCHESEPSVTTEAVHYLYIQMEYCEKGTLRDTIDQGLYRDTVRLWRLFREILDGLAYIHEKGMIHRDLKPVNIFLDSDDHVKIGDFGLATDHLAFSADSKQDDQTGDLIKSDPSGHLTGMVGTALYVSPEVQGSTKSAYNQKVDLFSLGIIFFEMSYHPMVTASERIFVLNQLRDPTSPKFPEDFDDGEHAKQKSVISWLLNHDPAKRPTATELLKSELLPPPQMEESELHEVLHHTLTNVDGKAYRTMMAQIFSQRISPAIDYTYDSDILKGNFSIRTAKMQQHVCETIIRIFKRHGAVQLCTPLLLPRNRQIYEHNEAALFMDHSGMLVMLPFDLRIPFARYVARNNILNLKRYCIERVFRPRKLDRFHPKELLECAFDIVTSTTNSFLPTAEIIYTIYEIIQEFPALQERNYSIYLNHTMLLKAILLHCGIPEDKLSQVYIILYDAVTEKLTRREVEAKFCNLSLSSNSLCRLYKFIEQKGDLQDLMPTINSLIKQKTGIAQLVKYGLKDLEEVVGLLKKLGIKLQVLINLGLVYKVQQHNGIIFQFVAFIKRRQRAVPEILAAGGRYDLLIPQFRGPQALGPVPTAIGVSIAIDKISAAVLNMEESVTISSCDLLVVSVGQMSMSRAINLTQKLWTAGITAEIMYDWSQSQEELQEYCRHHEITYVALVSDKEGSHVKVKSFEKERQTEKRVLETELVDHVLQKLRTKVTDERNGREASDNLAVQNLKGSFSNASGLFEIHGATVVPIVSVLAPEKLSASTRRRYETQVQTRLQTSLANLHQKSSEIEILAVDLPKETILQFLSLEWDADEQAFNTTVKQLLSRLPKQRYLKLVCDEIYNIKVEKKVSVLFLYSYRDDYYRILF
Sequence of Serine/threonine-protein kinase PAK 4 (Homo sapiens) (O96013 whole entry, looked up, the tested form may be a part): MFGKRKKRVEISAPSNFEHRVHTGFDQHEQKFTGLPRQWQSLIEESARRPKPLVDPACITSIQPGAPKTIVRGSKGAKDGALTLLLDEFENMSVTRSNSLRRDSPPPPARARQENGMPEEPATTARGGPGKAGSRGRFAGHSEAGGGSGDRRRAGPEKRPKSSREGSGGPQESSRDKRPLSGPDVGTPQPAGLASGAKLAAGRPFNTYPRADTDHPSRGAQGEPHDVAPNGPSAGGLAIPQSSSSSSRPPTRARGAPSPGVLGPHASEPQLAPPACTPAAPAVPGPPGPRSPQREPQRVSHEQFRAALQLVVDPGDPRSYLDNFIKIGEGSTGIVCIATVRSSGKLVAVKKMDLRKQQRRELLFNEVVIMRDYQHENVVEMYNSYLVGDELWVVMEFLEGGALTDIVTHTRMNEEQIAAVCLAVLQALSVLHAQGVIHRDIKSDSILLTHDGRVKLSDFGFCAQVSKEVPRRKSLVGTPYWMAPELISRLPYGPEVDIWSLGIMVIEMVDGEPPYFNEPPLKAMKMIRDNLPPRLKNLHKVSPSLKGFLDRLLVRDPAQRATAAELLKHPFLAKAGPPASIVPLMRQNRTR
Sequence of Serine/threonine-protein kinase LATS1 (Homo sapiens) (O95835 whole entry, the tested form may be a part): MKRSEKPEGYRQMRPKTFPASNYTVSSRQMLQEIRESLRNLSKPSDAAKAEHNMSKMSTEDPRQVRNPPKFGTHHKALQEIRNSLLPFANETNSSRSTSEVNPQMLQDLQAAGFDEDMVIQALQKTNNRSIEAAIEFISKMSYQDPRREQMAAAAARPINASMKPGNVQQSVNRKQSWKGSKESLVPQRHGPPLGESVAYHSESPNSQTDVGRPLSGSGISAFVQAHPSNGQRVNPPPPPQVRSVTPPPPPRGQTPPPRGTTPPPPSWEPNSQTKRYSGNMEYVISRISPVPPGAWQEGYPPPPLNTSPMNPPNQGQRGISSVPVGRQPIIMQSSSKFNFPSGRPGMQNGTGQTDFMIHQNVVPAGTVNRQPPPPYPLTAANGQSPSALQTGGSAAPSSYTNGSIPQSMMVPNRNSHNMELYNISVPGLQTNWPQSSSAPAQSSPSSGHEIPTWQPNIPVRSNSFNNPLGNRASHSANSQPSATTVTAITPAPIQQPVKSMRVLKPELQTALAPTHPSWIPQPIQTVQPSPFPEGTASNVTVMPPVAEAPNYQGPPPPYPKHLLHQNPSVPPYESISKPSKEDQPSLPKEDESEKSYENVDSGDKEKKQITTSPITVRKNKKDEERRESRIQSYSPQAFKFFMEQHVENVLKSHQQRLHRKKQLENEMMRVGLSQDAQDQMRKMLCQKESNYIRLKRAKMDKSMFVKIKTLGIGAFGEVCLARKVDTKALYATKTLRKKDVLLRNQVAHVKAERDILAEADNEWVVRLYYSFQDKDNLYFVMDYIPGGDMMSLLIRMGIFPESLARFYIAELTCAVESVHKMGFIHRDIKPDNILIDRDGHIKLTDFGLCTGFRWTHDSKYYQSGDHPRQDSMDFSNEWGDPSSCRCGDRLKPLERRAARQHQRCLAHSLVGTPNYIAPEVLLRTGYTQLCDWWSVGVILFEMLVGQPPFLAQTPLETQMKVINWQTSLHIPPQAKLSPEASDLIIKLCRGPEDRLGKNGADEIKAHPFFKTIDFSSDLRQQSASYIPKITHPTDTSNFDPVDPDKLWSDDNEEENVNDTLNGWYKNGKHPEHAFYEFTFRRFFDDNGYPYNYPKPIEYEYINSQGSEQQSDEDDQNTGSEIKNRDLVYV
Sequence of Mitogen-activated protein kinase kinase kinase 6 (Homo sapiens) (O95382 whole entry, the tested form may be a part): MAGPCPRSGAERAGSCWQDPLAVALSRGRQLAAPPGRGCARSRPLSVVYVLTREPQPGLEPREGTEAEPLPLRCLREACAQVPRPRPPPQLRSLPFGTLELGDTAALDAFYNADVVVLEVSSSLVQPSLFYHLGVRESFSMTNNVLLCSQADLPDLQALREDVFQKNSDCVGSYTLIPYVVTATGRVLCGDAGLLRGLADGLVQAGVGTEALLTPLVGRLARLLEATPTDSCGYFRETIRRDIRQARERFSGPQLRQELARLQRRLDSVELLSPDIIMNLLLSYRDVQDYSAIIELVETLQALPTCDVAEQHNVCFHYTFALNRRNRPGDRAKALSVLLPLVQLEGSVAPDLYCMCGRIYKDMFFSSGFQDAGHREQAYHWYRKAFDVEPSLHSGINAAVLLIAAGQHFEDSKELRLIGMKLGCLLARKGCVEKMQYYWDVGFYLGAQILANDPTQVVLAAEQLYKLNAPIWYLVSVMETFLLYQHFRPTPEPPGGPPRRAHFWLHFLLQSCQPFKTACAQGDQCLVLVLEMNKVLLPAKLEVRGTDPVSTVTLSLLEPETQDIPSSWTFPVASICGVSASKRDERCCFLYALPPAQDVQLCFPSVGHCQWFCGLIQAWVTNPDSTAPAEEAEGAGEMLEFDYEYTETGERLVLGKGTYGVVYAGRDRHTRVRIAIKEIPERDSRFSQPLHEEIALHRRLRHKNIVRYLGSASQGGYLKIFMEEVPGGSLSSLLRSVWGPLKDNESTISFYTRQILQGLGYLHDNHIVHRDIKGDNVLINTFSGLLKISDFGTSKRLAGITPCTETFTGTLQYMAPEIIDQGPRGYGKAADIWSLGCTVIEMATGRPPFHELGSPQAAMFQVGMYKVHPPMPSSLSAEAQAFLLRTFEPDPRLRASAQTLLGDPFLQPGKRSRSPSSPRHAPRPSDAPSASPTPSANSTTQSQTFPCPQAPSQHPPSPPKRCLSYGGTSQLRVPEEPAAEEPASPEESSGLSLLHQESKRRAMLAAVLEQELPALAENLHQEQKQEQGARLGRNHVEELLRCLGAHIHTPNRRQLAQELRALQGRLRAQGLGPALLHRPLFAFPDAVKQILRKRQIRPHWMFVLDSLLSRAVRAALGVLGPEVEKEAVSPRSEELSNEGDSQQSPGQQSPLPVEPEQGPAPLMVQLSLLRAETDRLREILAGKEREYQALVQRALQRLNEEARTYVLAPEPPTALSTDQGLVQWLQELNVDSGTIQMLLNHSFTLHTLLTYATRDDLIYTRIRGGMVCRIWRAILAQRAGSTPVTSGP
Sequence of Serine/threonine-protein kinase 17A (Homo sapiens) (Q9UEE5 whole entry, the tested form may be a part): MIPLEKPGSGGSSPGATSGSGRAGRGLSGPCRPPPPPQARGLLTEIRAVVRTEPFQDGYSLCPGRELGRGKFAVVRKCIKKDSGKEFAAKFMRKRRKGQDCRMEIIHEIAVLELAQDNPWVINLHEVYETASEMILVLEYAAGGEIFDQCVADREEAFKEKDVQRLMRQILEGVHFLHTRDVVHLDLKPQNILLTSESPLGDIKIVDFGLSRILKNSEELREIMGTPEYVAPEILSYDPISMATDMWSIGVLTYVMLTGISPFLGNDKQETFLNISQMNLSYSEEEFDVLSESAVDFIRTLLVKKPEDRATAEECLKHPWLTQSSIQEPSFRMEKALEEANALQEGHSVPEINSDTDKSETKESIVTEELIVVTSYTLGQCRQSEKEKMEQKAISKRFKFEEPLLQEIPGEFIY

Consider `CC(C)Nc1sc(C(=O)c2ccc(Cl)s2)c(N)c1C#N`, for which the Activity in [1] came to 89%; in experiment [2], 63%; in experiment [3] it was 93%; in experiment [4] it was 80%; in experiment [5], 61%; in experiment [6], 100%. Moreover, the Activity came to 88% in experiment [7]; 57% in [8]; 86% in experiment [9]; 100% in experiment [10]; 56% in [11]; 100% in [12]. For the same molecule, the Activity in experiment [13] turned out to be 74%; in [14], 60%; in [15], 56%; in [16] it was 100%; in experiment [17] it was 78%; in [18] it was 80%. In addition, the Activity was determined as 80% in experiment [19]; 100% in experiment [20]; 98% in experiment [21]; 45% in [22]; 76% in [23]; 100% in experiment [24].
